The subject of test [1] is Rat Bladder Augmentation Model. Nature of the test: Blood vessel quantification in areas of bladder tissue regeneration. It is filed as in vivo. As to conditions: means±SE. As to the method:
(§1) Athymic female rats (weighing ˜200 g and 8-10 weeks old; National Cancer Institute Animal Production Program) underwent bladder augmentation (ref. 15; herein incorporated by reference in its entirety). Athymic rats were chosen for this study to solely examine the innate immune response to inflammation without influence of the adaptive immune response. In order to induce anesthesia, animals were given intraperitoneal injections of 60 mg/kg ketamine and 5 mg/kg xylazine. A second injection consisting of Buprenex (1 mg/kg) was administered subcutaneously to alleviate any pain/discomfort during and following surgical procedures. An approximate 1.5 cm midline vertical skin incision was created to expose the abdominal fascia and muscles. This was immediately followed by the separation of the wall leading to the identification of the bladder. An approximate 70% supratrigonal cystectomy was performed from anterior to posterior creating a clamshell. Immediately prior to bladder augmentation procedures, samples of the pro-inflammatory biological scaffold, small intestinal submucosa (SIS (0.5×0.5 cm); Cook Biotech.) (refs. 12,13,16; herein incorporated by reference in their entireties) were thoroughly dip-coated separately in one of the previously described AIF-PAs following gelation procedures. The sections of SIS were dip-coated for approximately 20 seconds and allowed to adhere to the SIS for an additional 30 seconds. Dip-coating procedures were performed at room temperature in air. The cystectomized bladder defect was then augmented with: 1) SIS (non-AIF-PA coated SIS; n=8 animals over both time-points); 2) AIF-PA1 coated SIS (denoted as SIS/AIF-PA1; n=11 animals over both time-points); 3) AIF-PA2 coated SIS (denoted as SIS/AIF-PA2; n=8 animals over both time-points); 4) AIF-PA3 coated SIS (denoted as SIS/AIF-PA3; n=3); 5) AIF-PA4 coated SIS (denoted as SIS/AIF-PA4; n=3 animals); 6) AIF-PA5 coated SIS (denoted as SIS/AIF-PA5; n=3 animals); and 7) AIFC-PA6 coated SIS (denoted as SIS/AIFC-PA6; n=9 animals over both time-points). The bladder was finally covered with omentum after being closed in a watertight manner utilizing 7-0 polyglactin suture. The abdominal wall was then closed in a single layer with 5-0 ethibond running suture and the skin re-approximated with 9 mm autoclips. Each group was sacrificed at 10 day and 5 week time-points.
Trichrome sample images were opened with Adobe Photoshop CS3 and were initially characterized utilizing a Nikon Eclipse 50i Microscope in addition to Spot Advanced Imaging Software. Vessel numbers were quantified utilizing the pen tool based upon n=10 images per graft in regenerated areas. Individual vessels were selected manually and subsequently quantified using the image histogram tool to acquire pixel density for each vessel. Data is represented as mean number of vessels/mm^2 (means±SE).

Test [2] deals with Rat Bladder Augmentation Model. Nature of the test: Granuloma quantification (CD68 immunofluorescence) in augmented bladder tissue. It counts as in vivo.
Excerpt: Granulation tissue is composed of several extracellular matrices such as collagen and a variety of immune cell types including lymphocytes, neutrophils, and especially macrophages (refs. 54-56; herein incorporated by reference in their entireties). Extravesical granulomas were found in regenerating bladder muscle and submucosa but not in the epithelial layer (urothelium) that lines the interior of the bladder wall. […] Granulation tissue was identified by a trained Pathologist (M.D.H.) utilizing immunofluorescence imaging with the macrophage marker CD68 (green). […] Images are representative examples of multiple stained tissue samples. See Table 1 for granuloma quantification. Magnification 100× (Scale bar, 200 μm).
as §1
Tissue sections comprised of SIS alone, SIS/AIF-PA1, SIS/AIF-PA2, and SIS/AIF-PA6 augmentations were subjected to immunofluorescence staining by initially undergoing antigen retrieval which consisted of 15 min of boiling in citrate buffer (0.01M citrate solution, pH 6.0 with 0.05% Tween-20) followed by cooling at room temperature for approximately 20 minutes. The antibody staining process consisted of a blocking step for 15 min in bovine serum albumin (BSA, 5 mg/ml) followed by a 40 minutes incubation at room temperature with the primary antibody. After washing with DPBS, slides were incubated for 30 min with a secondary antibody and eventually rinsed with DPBS and air dried. Slides were mounted with Vectashield (Vector Laboratories). […]

For test [3], the system named is IL-10. Nature of the test: IL-10 expression in regenerated bladder tissue (immunofluorescence). It is filed as in vivo, rat. As to conditions: for Cytokine expression (shown as percentage of cells staining positive) Anti-inflammatory IL-10: 5 weeks post-augmentation, means ± SE; for percentage of cells staining positive for IL-10: 10 days post-augmentation. As to the method: as §1
(§2) Tissue sections comprised of SIS alone, SIS/AIF-PA1, SIS/AIF-PA2, and SIS/AIF-PA6 augmentations were subjected to immunofluorescence staining by initially undergoing antigen retrieval which consisted of 15 min of boiling in citrate buffer (0.01M citrate solution, pH 6.0 with 0.05% Tween-20) followed by cooling at room temperature for approximately 20 minutes. The antibody staining process consisted of a blocking step for 15 min in bovine serum albumin (BSA, 5 mg/ml) followed by a 40 minutes incubation at room temperature with the primary antibody. After washing with DPBS, slides were incubated for 30 min with a secondary antibody and eventually rinsed with DPBS and air dried. Slides were mounted with Vectashield (Vector Laboratories). Primary antibodies were directed against epitopes for the inflammatory markers CD68 (macrophage) (refs. 18,19; herein incorporated by reference in their entireties) MPO (neutrophil) (ref. 20; herein incorporated by reference in its entirety) or the inflammation-related proteins IL1β, TNFα, IL-10, IL-13, CD206 (M2 macrophage) (refs. 21-25; herein incorporated by reference in their entireties) and CD86 (M1 macrophage) (ref. 26; herein incorporated by reference in its entirety). Antibodies directed against the ECM in regenerating bladder tissue (including COL4A3 and fibronectin) were also utilized. Alexa Red 555 or FITC conjugated secondary antibodies (Molecular Probes) were utilized for visualization (ref. 15; herein incorporated by reference in its entirety). […]

Test [4] deals with CD206+ M2 macrophages. The experiment in a line: M2 macrophage subtype (CD206) distribution in regenerating bladder tissue. It counts as in vivo, rat. As to conditions: for M2 macrophage levels, in words: 10 days to 5 weeks. As to the method: as §1, §2
In test [5] the test system is IL-1β. Nature of the test: IL-1β expression in regenerated bladder tissue (immunofluorescence). It is filed as in vivo, rat. As to conditions: for Cytokine expression (shown as percentage of cells staining positive) Pro-inflammatory IL-1β: 5 weeks post-augmentation, means ± SE; for percentage of cells staining positive for IL-1β: 10 days post-augmentation. How it is done: as §1, §2

* marks the point of attachment. C16 alkyl = CCCCCCCCCCCCCCCC*

Turning to “C16-VVVAAAEEEHDMNKVLDL (SEQ ID NO:2) ({C16 alkyl}-VVVAAAEEEHDMNKVLDL-NH2) [SIS/AIF-PA2, anti-inflammatory peptide amphiphile, tested dip-coated on small intestinal submucosa (SIS) scaffold]”, in test [1] (5W post-augmentation), the “number of vessels in regenerated tissue” value amounted to 96.7±4.4 vessels/mm^2. The “number of vessels in regenerated tissue” value in test [1] (10D post-augmentation) is listed as 71.5±6.7 vessels/mm^2. In test [2] (5W post-augmentation), the “Maximum Granuloma Size” value is on record as 4.08 ± 0.38 10^-3 mm^2, the “Mean Granuloma Size” value is recorded as 3.00 ± 0.20 10^-3 mm^2, the “Minimum Granuloma Size” value is on record as 2.09 ± 0.39 10^-3 mm^2 and the “Number of Granulomas” value was found to be 3.00 ± 1.00. Besides, the “Number of Large Granulomas (>0.01 mm^2)” value in test [2] (5W post-augmentation) is 0. Moreover, the “granuloma formation, in words” value in test [2] (5W samples) is “diminished”. In test [2] (10D post-augmentation), the “Maximum Granuloma Size” value is on record as 11.99 ± 3.62 10^-3 mm^2, the “Mean Granuloma Size” value is on record as 5.95 ± 1.16 10^-3 mm^2, the “Minimum Granuloma Size” value is given as 2.65 ± 0.17 10^-3 mm^2 and the “Number of Granulomas” value was determined as 4.00 ± 1.00. In addition, in test [2] (10D post-augmentation), the “Number of Large Granulomas (>0.01 mm^2)” value was found to be 0.67 ± 0.33. Moreover, the “granuloma formation, in words” value in test [2] (10 day samples) is “lesser degree of granuloma formation in size and frequency”. For the same substance, in test [3], the “Cytokine expression (shown as percentage of cells staining positive) Anti-inflammatory IL-10” value was 33.2 ± 2.3 percentage and the “percentage of cells staining positive for IL-10” value (from here on “percentage … for IL-10”) came to 56.2±3.4%. For the same substance, in test [4] (5W post-augmentation), the “number of M2 macrophages” value worked out at 224.7±39.0 cells/mm^2. In addition, in test [4], the “M2 macrophage levels, in words” value is “Comparatively low numbers”. Further, in test [5], the “Cytokine expression (shown as percentage of cells staining positive) Pro-inflammatory IL-1β” value is on record as 11.5 ± 2.7 percentage and the “percentage of cells staining positive for IL-1β” value (“percentage … for IL-1β” for short) is on record as 21.2±2.4%.
As for “C16-VVVAAAEEEKLMSQKMVD (SEQ ID NO:6) ({C16 alkyl}-VVVAAAEEEKLMSQKMVD-NH2) [SIS/AIFC-PA6, reference compound]”, the “number of vessels in regenerated tissue” value in test [1] (5W post-augmentation) worked out at 53.3±4.4 vessels/mm^2. In test [1] (10D post-augmentation), the “number of vessels in regenerated tissue” value worked out at 37.0±2.3 vessels/mm^2. In addition, in test [2] (5W post-augmentation), the “Maximum Granuloma Size” value was 14.80 ± 2.30 10^-3 mm^2, the “Mean Granuloma Size” value is 6.10 ± 0.51 10^-3 mm^2, the “Minimum Granuloma Size” value was 2.21 ± 0.30 10^-3 mm^2 and the “Number of Granulomas” value was determined as 7.00 ± 1.08. Moreover, the “Number of Large Granulomas (>0.01 mm^2)” value in test [2] (5W post-augmentation) amounted to 1.00 ± 0.41. The “granuloma formation, in words” value in test [2] (5W samples) is given as “accumulation of granulomas”. Also, in test [2] (10D post-augmentation), the “Maximum Granuloma Size” value is listed as 110.89 ± 1.51 10^-3 mm^2, the “Mean Granuloma Size” value is recorded as 29.64 ± 0.74 10^-3 mm^2, the “Minimum Granuloma Size” value is on record as 6.12 ± 0.01 10^-3 mm^2 and the “Number of Granulomas” value was 10.00 ± 1.00. Also, in test [2] (10D post-augmentation), the “Number of Large Granulomas (>0.01 mm^2)” value turned out to be 6.00 ± 1.00. The “granuloma formation, in words” value in test [2] (10 day samples) is “large granuloma formation”. In addition, in test [3], the “Cytokine expression (shown as percentage of cells staining positive) Anti-inflammatory IL-10” value is reported as 21.1 ± 2.1 percentage and the “percentage … for IL-10” value was determined as 27.8±3.0%. In addition, the “number of M2 macrophages” value in test [4] (5W post-augmentation) stood at 539.3±46.7 cells/mm^2. The “number of M2 macrophages” value in test [4] (10D post-augmentation) was determined as 842.5±18.9 cells/mm^2. Moreover, in test [5], the “Cytokine expression (shown as percentage of cells staining positive) Pro-inflammatory IL-1β” value stood at 42.9 ± 1.8 percentage and the “percentage … for IL-1β” value is 63.3±2.4%.
“C16-VVVAAAEEEMQMKKVLDS (SEQ ID NO:1) ({C16 alkyl}-VVVAAAEEEMQMKKVLDS-NH2) [SIS/AIF-PA1, anti-inflammatory peptide amphiphile, tested dip-coated on small intestinal submucosa (SIS) scaffold]”: in test [1] (5W post-augmentation), the “number of vessels in regenerated tissue” value was determined as 90.7±4.5 vessels/mm^2. Also, the “number of vessels in regenerated tissue” value in test [1] (10D post-augmentation) stood at 71.0±1.5 vessels/mm^2. In test [2] (5W post-augmentation), the “Maximum Granuloma Size” value is recorded as 1.62 ± 1.15 10^-3 mm^2, the “Mean Granuloma Size” value is listed as 1.26 ± 0.68 10^-3 mm^2, the “Minimum Granuloma Size” value is recorded as 0.97 ± 0.65 10^-3 mm^2 and the “Number of Granulomas” value was 1.75 ± 1.03. For the same substance, the “Number of Large Granulomas (>0.01 mm^2)” value in test [2] (5W post-augmentation) worked out at 0. Further, in test [2] (5W samples), the “granuloma formation, in words” value is “diminished”. Further, in test [2] (10D post-augmentation), the “Maximum Granuloma Size” value is on record as 23.39 ± 7.66 10^-3 mm^2, the “Mean Granuloma Size” value is recorded as 8.77 ± 1.32 10^-3 mm^2, the “Minimum Granuloma Size” value was 2.67 ± 0.15 10^-3 mm^2 and the “Number of Granulomas” value was 4.00 ± 1.00. Further, in test [2] (10D post-augmentation), the “Number of Large Granulomas (>0.01 mm^2)” value worked out at 1.33 ± 0.33. Also, the “granuloma formation, in words” value in test [2] (10 day samples) is “lesser degree of granuloma formation in size and frequency”. Also, in test [3], the “Cytokine expression (shown as percentage of cells staining positive) Anti-inflammatory IL-10” value was 30.0 ± 1.6 percentage and the “percentage … for IL-10” value is 52.0±3.1%. Besides, in test [4] (5W post-augmentation), the “number of M2 macrophages” value is given as 301.7±23.0 cells/mm^2. In addition, the “M2 macrophage levels, in words” value in test [4] is “further decreased by 5 weeks”. For the same substance, in test [5], the “Cytokine expression (shown as percentage of cells staining positive) Pro-inflammatory IL-1β” value came out at 12.9 ± 2.0 percentage and the “percentage … for IL-1β” value was determined as 28.2±2.4%.

For the origin of these results see US11161876B2, “Anti-inflammatory nanofibers” (Northwestern University, priority 2015, dated 2021).
